From patent publication US5459257A, “Sulfated oligoglycoside acylate and antiviral agent containing the same as active ingredient” (priority 1993, dated 1995)
Read-outs that look alike come from different tables or passages of the source.

How the values were obtained:
[1] = in vivo; cited from earlier work
[2] = system: rabbit blood
Description: (§3) Sodium heparin (Kodama) used as positive control was diluted with saline at the concentration of 120 U/ml.
(§4) Japan White rabbits (supplier: Kitayama Labes), 4 months old, were used for this study.
(§5) Cardiopuncture was performed in a rabbit, and at when blood was started to be flowed into the syringe, the timer was made to start. The whole blood collected was carefully flowed into double glass tubes incubated. After putting the samples calmly for 3 minutes, the first tube was tilted gently every 30 seconds and the current of blood was observed. When blood in the first tube was clotted, the same operation was performed in the second tube. When the blood was clotted in the second tube, the timer was stopped, and this end point was recorded as whole blood clotting time.

[3] = system: HIV; experiment: anti-HIV activity of serum after intravenous administration to mice; format: in vivo; conditions: for reciprocal number of concentration of dextran sulfate at 50% cell viability: mouse serum, 80 mg/kg
Description: The effects of Compound 6 and dextran sulfate in vivo experiment were studied by duration of the activity using mouse.
Compound 6 were dissolved with saline at the concentration of 32 mg/10 ml. Dextran sulfate (Control compound: M.W=8000: Sigma) were dissolved with it at the concentration of 80 mg/10 ml.
(§1) Mouse (Crj:CD-1(ICR)) (supplier: Charles River Japan, Inc.), six weeks old were used for this study.
Four groups (for 1, 4, 6 and 12 hours) of mice (one group: three mice) were used for the in vivo experiments of the Compound 6.
The twelve mice were given an intravenous injection of the compound (in the tail vein; Dose 32 mg/kg).
Three groups (for 20, 40 and 60 minutes) of mice (one group: two mice) were used for dextran sulfate such a method as described in Compound 6 (Dose 80 mg/kg). At decided times after injection, the blood was collected and serum was separated by centrifugation at low speed.
The serum samples were stored at -80° C. until assayed. Each serum sample was diluted with culture medium to evaluate the effective concentration (the maximum concentration was set up to 10%). The method of this anti-HIV activity evaluation was the same one as described in EXAMPLE 49.
(*)Various concentration of the serum solutions (diluted with the medium
and the maximum concentration is 10%) were used for evaluation of the
shown. That is why the higher the reciprocal number, the higher the […]

[4] = system: rabbit blood; experiment: effects on blood clotting, whole blood clotting time; conditions: for clotting time: rabbit whole blood
Description: as §3, §4, §5

[5] = system: HIV; experiment: anti-HIV activity of serum after oral administration to mice; format: in vivo; conditions: for reciprocal number of concentration at 50% cell viability: mouse serum
Description: The effects of orally administration of Compound 1 in vivo experiment were studied by duration of the activity using mouse.
Compound 1 was dissolved with distilled water at the concentrations of 500 mg/10 ml and 1000 mg/10 ml.
as §1
Three groups (for 1, 2 and 3 hours) of mice (one group: three mice) were used for the in vivo experiments. Nine mice were given an orally administered of Compound 1 at a dose of 500 mg/kg or 1.0 g/kg.
At decided times after administration, the blood was collected and the serum was collected by centrifugation at low speed.
The serum samples were stored at -80° C. until assayed.
Each serum sample was diluted to evaluate the effective concentration with culture medium. The evaluation method was the same as described the section of Anti-HIV activity.

[6] = system: MT-4 cells; experiment: cytotoxicity in mock-infected MT-4 cells (MTT method); format: cell-based; conditions: mock-infected MT-4 cells, 5 days, 37° C.; 7200 min
Description: (§2) A test compound having various concentrations were placed in a 96-well microtiter plate along with HIV-infected MT-4 cells (2.5×10^4 /well, MOI (multiplicity of infection): 0.01) immediately after infection thereof. In order to ascertain the cytotoxicty of the test compound with respect to MT-4 cells, mock-infected (non-infected) cells were cultured in an identical manner along with the test compound of various concentrations. After incubating for 5 days at 37° C. in a CO2 atmosphere, the number of living cells were determined by using MTT method.
Selectivity Index (S.I.) is expressed by the ratio of CC50 to EC50 (CC50 /EC50).

[7] = system: HIV; experiment: anti-HIV activity, inhibition of HIV-induced cytopathicity in MT-4 cells (MTT method); format: cell-based
Description: as §2, with “method. The anti-HIV activity was evaluated with the method written by R. Pauwels, et al. (R. Pauwels, et al., J. Virol Methods, 20, 309 to 321 (1988)).” for “method.”
The anti-HIV activity is shown in terms of EC50 (50% effective concentration) that is the concentration of a compound which inhibits 50% of HIV-induced cytopathicity in MT-4 cells, and the cytotoxity is shown in terms of CC50 (cytotoxic concentration) that is the concentration of a compound which reduces 50% of viability of mock-infected MT-4 cells. Selectivity Index (S.I.) is expressed by the ratio of CC50 to EC50 (CC50 /EC50).

Substance: dextran sulfate
- absorption after oral administration [1]: poorly absorbed
- comparing strength of effects on blood clotting [2]: dextran sulfate>1>6
- reciprocal number of concentration of dextran sulfate at 50% cell viability ([3]; 20 min after i.v. injection): < 10
- reciprocal number of concentration of dextran sulfate at 50% cell viability ([3]; 40 min after i.v. injection): < 10
- reciprocal number of concentration of dextran sulfate at 50% cell viability ([3]; 60 min after i.v. injection): < 10
- detection/duration of activity in serum ([3]; mouse, i.v., Compound 6 32 mg/kg up to 12 hours, dextran sulfate 80 mg/kg up to 60 min): could not be detected

Substance: Sulfated n-dodecyl O-benzoyl-β-D-laminaripentaoside [Compound 1]
- comparing strength of effects on blood clotting ([4]; at the concentration of more than 0.1%): dextran sulfate>1>6
- clotting time ([4]; 0.01%): 8.0 ± 0.5 min
- clotting time ([4]; 0.1%): 8.3 ± 0.7 min
- clotting time ([4]; 1.0%): 27.3 ± 3.0 min
- reciprocal number of concentration at 50% cell viability ([5]; 1 hour after oral administration, 500 mg/kg): 15.9
- reciprocal number of concentration at 50% cell viability ([5]; 1 hour after oral administration, 1.0 g/kg): 55.6
- reciprocal number of concentration at 50% cell viability ([5]; 2 hours after oral administration, 500 mg/kg): 19.2
- reciprocal number of concentration at 50% cell viability ([5]; 2 hours after oral administration, 1.0 g/kg): 83.8
- reciprocal number of concentration at 50% cell viability ([5]; 3 hours after oral administration, 500 mg/kg): 26.7
- reciprocal number of concentration at 50% cell viability ([5]; 3 hours after oral administration, 1.0 g/kg): 54.1
- detection of activity in serum after oral administration ([5]; mouse, oral, 500 mg/kg or 1.0 g/kg): detected at a high concentration
- CC50 [6]: 814 µg/mL
- EC50 ([7]; HIV-infected MT-4 cells, MOI 0.01, 5 days, 37° C.): 3.2 µg/mL
- S.I. (CC50/EC50) ([7]; MT-4 cells, ratio of CC50 to EC50, 7200 min): 254
